Assay results taken from ChEMBL document CHEMBL1201862, “PubChem BioAssay data set” (2004).
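A five-concentration, 48-hour dose response in 96-well plates underlies each endpoint, interpolated linearly between surrounding concentrations. The concentration for 50% growth inhibition is given as GI50.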 Active and inactive are the calls of the source. Rule as the data show it: active = GI50 up to about 1.1 µM and inactive = higher.

What was measured:
Test in all cases: growth of human tumour cells (NCI), 48 h
XF498 = system: XF498
LXFL 529 = system: LXFL 529
HOP-18 = system: HOP-18
DMS-114 = system: DMS-114
SNB-78 = system: SNB-78
DMS-273 = system: DMS-273
M19-MEL = system: M19-MEL
DLD-1 = system: DLD-1
RXF 631 = system: RXF 631

Measured: GI50

[N-]=[N+]=Nc1ccc(S(=O)(=O)Oc2cc(OS(=O)(=O)c3ccc(N=[N+]=[N-])cc3)cc(OS(=O)(=O)c3ccc(N=[N+]=[N-])cc3)c2)cc1
inactive: XF498 > 100 µM | LXFL 529 > 100 µM | HOP-18 > 100 µM | DMS-114 > 100 µM | SNB-78 > 100 µM | DMS-273 > 100 µM | M19-MEL > 100 µM | DLD-1 > 100 µM | RXF 631 > 100 µM

C=C1CC2(CCS(=O)(=O)c3ccccc32)OC1=O (stereo not drawn)
inactive: XF498 13.2 µM | LXFL 529 4.4 µM | HOP-18 3.63 µM | DMS-114 3.94 µM | SNB-78 9.51 µM | DMS-273 16.5 µM | M19-MEL 17.5 µM | DLD-1 12.5 µM | RXF 631 20.7 µM
